Values of other authors, collected in paper PMC8891573, “Dysregulation of the Nitric Oxide/Dimethylarginine Pathway in Hypoxic Pulmonary Vasoconstriction—Molecular Mechanisms and Clinical Significance” (Frontiers in Medicine, 2022).
Read-outs that look alike come from different tables or passages of the source.

Key:
[1] = inhaled NO, small trials
mouse lungs = system: mouse lungs; design: method as in PMID 19648472; conditions: oral L-arginine treatment
[2] = design: method as in PMID 9799202
isolated aortic rings = system: isolated aortic rings; design: method as in PMID 2870025
mice = system: mice; design: method as in PMID 17068215; conditions: acute HX exposure, HC or SC mice, i.p. injection of ADMA
eNOS = conditions: for effect on NOS activity: competition with L-arginine for the NOS catalytic site
CAT-2 = system: CAT-2; design: method as in PMID 28684763, PMID 9701046
ETA and ETB receptors = system: ETA and ETB receptors; design: method as in PMID 8847282, PMID 8873714, PMID 20415698; conditions: animal models and clinical studies

For Nitric oxide [NO], which “effects on COVID-19-associated hypoxaemia and outcome” value [1] is on record?
The value was “inconclusive”.

Which results are given for N=C(N)NCCC[C@H](N)C(=O)O [L-arginine]?
PRMT2, DDAH2, ADMA and nitrotyrosine changes in ovalbumin-treated mice (mouse lungs): PRMT2 ↑ and DDAH2 ↓ in ovalbumin-treated mice, along with ↑ ADMA and ↑ nitrotyrosine; Reversal with oral L-arginine treatment; reversal of impaired NO generation and endothelial dysfunction due to elevated ADMA [2]: reversible

For CC(=O)OCC[N+](C)(C)C [acetylcholine], which “vascular response of aortic rings” value (isolated aortic rings; Wistar rats) is on record?
Its value is “endothelium-dependent vasodilation”.

And the “vascular response of aortic rings” value (isolated aortic rings; spontaneously hypertensive rats (SHR))?
The value was “vasoconstriction”.

With CN(C)C(N)=NCCC[C@H](N)C(=O)O [ADMA, asymmetric dimethylarginine] as the molecule, how does the HX survival time (mice) read?
Its HX survival time is “ADMA increased HX survival time in HC and in SC mice; the effect was mediated by regulation of eNOS activity”.

What about the “inhibition of eNOS” value (eNOS) of the same molecule?
Its value is “competitive inhibitor”.

What about the “effect on NOS activity” value (eNOS) of the same molecule?
The value was “competitively inhibits NOS activity”.

What about the “inhibition of CAT-2, cellular uptake transporter for L-arginine” value (CAT-2) of the same molecule?
Its value is “may inhibit”.

Which “effect on NOS activity” value (eNOS) does the source give for CN=C(NC)NCCC[C@H](N)C(=O)O [SDMA, symmetric dimethylarginine] here?
The value was “unable to directly interfere with NOS activity”.

What about the “inhibition of CAT-2, cellular uptake transporter for L-arginine” value (CAT-2) of the same molecule?
The value was “may inhibit”.

For COc1ccccc1Oc1c(NS(=O)(=O)c2ccc(C(C)(C)C)cc2)nc(-c2ncccn2)nc1OCCO [bosentan], which “effect on HPV” value (ETA and ETB receptors) is on record?
The value was “variable effects”.
